Series [1] can be described thus: MRT in Wistar Han rat at 0.1 mg/kg, iv by LC-MS/MS analysis. In kind it is ADME, organism-based. Conditions: in vivo.
In series [2] the test system is Leucine-rich repeat serine/threonine-protein kinase 2 (Homo sapiens), Q5S007 [G2019S]. As to the kind of experiment: Inhibition of LRRK2 […] mutant expressed in human SH-SY5Y cells assessed as unbound concentration required for inhibition of phosphorylation of LRRK2 at Ser935 residue incubated for 90 mins by MSD assay. The class given is cell-based.
Leucine-rich repeat serine/threonine-protein kinase 2 (Homo sapiens), Q5S007 [G2019S], sequence (Q5S007 whole entry G2019S): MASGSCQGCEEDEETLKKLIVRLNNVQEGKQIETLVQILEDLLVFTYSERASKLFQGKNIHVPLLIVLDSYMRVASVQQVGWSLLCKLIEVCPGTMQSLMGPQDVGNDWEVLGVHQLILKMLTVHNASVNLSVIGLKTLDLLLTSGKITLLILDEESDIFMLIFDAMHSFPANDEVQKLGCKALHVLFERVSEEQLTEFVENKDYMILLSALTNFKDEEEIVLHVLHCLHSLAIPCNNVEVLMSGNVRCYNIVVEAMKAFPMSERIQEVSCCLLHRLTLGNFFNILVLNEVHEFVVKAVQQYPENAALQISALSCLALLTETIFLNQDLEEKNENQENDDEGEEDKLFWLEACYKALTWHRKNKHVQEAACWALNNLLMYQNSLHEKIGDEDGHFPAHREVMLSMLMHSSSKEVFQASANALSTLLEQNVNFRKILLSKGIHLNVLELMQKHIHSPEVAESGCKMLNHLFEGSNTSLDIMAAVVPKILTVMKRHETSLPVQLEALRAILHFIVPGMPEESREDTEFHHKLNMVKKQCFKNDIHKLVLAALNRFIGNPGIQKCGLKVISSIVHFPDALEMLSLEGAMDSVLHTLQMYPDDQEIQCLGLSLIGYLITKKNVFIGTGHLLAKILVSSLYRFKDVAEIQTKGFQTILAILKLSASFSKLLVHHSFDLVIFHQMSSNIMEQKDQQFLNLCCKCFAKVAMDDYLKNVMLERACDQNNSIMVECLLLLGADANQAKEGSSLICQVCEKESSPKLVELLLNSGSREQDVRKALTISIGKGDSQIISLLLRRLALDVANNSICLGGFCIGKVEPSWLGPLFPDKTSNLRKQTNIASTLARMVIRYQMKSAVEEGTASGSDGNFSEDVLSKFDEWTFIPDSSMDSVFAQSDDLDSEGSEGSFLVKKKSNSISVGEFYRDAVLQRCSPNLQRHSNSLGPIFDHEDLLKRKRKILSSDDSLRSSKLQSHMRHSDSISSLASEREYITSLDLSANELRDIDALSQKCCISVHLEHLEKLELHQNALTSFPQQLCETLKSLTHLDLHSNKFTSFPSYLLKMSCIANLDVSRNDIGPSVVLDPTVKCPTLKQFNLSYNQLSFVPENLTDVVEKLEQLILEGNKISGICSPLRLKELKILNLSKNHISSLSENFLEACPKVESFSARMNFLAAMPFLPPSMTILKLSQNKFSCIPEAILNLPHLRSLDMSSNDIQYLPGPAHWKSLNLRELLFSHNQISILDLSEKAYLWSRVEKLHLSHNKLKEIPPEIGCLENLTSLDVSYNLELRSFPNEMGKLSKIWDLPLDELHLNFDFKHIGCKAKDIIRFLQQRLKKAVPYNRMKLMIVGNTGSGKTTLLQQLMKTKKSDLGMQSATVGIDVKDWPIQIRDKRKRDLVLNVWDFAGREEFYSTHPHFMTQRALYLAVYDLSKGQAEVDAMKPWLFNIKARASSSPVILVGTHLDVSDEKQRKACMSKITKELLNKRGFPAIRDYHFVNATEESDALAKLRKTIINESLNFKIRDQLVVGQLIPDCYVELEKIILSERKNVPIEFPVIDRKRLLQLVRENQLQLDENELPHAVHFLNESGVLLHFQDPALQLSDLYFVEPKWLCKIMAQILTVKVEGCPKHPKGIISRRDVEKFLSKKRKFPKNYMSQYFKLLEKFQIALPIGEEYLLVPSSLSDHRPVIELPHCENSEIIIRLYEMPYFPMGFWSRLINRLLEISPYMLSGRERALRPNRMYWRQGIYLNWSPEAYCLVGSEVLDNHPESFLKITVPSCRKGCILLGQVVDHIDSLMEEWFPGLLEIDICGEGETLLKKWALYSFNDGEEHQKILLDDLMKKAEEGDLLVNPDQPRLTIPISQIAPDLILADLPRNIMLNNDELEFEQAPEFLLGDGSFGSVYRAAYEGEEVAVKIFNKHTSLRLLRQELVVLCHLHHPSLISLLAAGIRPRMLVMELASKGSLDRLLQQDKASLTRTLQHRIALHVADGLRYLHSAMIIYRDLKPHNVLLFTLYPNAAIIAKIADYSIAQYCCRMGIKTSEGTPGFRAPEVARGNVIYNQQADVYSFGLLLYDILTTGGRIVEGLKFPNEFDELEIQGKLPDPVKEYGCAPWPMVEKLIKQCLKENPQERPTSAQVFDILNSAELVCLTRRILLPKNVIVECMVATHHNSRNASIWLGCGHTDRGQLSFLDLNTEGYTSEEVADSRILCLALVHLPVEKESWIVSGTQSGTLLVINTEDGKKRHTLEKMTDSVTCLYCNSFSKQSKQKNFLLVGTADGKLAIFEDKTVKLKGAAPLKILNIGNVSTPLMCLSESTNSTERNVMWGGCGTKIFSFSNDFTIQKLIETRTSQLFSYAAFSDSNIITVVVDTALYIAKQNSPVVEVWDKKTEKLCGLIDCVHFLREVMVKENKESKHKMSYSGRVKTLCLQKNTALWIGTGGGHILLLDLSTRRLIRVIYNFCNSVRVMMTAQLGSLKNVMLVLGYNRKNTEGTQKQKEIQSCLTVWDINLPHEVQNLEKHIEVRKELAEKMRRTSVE
Series [3] can be described thus: Total plasma clearance in Wistar Han rat at 0.1 mg/kg, iv by LC-MS/MS analysis. The class given is ADME, organism-based.
The test system of the next series is mouse Bcrp. As to the kind of experiment: Efflux ratio of apparent permeability across basolateral to apical over apical to basolateral side in mouse Bcrp-transfected dog MDCK-II cells at 0.1 to 1 uM measured after 3 hrs by LC/MS/MS analysis. As to conditions: dose 0.1-1 µM. The class given is ADME, cell-based, Canis lupus familiaris.
For series [4], the system named is rat Mdr1a (P-gp). As to the kind of experiment: Efflux ratio of apparent permeability across basolateral to apical side over apical to basolateral side in rat Mdr1a-transfected pig LLC-PK1 cells at 0.1 to 1 uM measured after 3 hrs by LC/MS/MS analysis. In kind it is ADME, cell-based, Sus scrofa. Conditions: dose 0.1-1 µM.
The nature of series [5]: Intrinsic clearance in Wistar Han rat at 0.1 mg/kg, iv by LC-MS/MS analysis. In kind it is ADME, organism-based. Conditions: in vivo.
The target in series [6] is Leucine-rich repeat serine/threonine-protein kinase 2 (Homo sapiens, UniProt Q5S007, G2019S). As to the kind of experiment: Inhibition of recombinant N-terminal GST-fused LRRK2 […] mutant (970 to 2527 residues) (unknown origin) preincubated with enzyme for 15 mins followed by fluorescein-labeled LRRKtide peptide substrate and ATP addition for 90 mins by TR-FRET assay.
Leucine-rich repeat serine/threonine-protein kinase 2, sequence (Q5S007 whole entry G2019S, the tested form may be a part): as the sequence (Q5S007 whole entry G2019S) above

Series [7] in a line: Intrinsic clearance in rat hepatocytes at 0.3 uM incubated for 90 mins by LC/MS/MS analysis. Conditions: read-out: CLH. The class given is ADME, cell-based, Hepatocyte.
Series [8] addresses Voltage-gated inwardly rectifying potassium channel KCNH2 (Homo sapiens, UniProt Q12809). As to the kind of experiment: Inhibition of human ERG by voltage clamp assay. The class given is toxicity.
A short description of series [9]: Intrinsic clearance in human hepatocytes at 0.3 uM incubated for 90 mins by LC/MS/MS analysis. As to conditions: read-out: CLH. In kind it is ADME, cell-based, Hepatocyte.
Series [10] relates to rat Mdr1a (P-gp). As to the kind of experiment: Apparent permeability from apical to basolateral side in rat Mdr1a-transfected pig LLC-PK1 cells at 0.1 to 1 uM measured after 3 hrs by LC/MS/MS analysis. The class given is ADME, cell-based, Sus scrofa. Conditions: dose 0.1-1 µM.
Series [11] is described as follows: Lipophilicity, logD of the compound by HPLC analysis. In kind it is physicochemical.
Series [12] is described as follows: Unbound brain-to-plasma concentration ratio in rat at 2.5 uM incubated for 4 hrs by equilibrium dialysis method. The class given is ADME, cell-free. Conditions: brain and plasma (unbound), read-out: K(p,uu,brain).
Series [13] can be described thus: Unbound brain-to-plasma concentration ratio in non-human primates administered orally and measured after 120 mins by LC/MS/MS analysis. In kind it is ADME. As to conditions: po, read-out: K(p,uu,brain).
For a further series, the system named is human MDR1 (P-gp). As to the kind of experiment: Efflux ratio of apparent permeability across basolateral to apical side over apical to basolateral side in human MDR1-transfected dog MDCKII-MDR1 cells at 0.1 to 1 uM measured after 3 hrs by LC/MS/MS analysis. The class given is ADME, cell-based, Canis lupus familiaris. Conditions: MDCK-MDR1, dose 0.1-1 µM.

pIC50: −log10 of the molar value.

Voltage-gated inwardly rectifying potassium channel KCNH2, sequence (Q12809 whole entry): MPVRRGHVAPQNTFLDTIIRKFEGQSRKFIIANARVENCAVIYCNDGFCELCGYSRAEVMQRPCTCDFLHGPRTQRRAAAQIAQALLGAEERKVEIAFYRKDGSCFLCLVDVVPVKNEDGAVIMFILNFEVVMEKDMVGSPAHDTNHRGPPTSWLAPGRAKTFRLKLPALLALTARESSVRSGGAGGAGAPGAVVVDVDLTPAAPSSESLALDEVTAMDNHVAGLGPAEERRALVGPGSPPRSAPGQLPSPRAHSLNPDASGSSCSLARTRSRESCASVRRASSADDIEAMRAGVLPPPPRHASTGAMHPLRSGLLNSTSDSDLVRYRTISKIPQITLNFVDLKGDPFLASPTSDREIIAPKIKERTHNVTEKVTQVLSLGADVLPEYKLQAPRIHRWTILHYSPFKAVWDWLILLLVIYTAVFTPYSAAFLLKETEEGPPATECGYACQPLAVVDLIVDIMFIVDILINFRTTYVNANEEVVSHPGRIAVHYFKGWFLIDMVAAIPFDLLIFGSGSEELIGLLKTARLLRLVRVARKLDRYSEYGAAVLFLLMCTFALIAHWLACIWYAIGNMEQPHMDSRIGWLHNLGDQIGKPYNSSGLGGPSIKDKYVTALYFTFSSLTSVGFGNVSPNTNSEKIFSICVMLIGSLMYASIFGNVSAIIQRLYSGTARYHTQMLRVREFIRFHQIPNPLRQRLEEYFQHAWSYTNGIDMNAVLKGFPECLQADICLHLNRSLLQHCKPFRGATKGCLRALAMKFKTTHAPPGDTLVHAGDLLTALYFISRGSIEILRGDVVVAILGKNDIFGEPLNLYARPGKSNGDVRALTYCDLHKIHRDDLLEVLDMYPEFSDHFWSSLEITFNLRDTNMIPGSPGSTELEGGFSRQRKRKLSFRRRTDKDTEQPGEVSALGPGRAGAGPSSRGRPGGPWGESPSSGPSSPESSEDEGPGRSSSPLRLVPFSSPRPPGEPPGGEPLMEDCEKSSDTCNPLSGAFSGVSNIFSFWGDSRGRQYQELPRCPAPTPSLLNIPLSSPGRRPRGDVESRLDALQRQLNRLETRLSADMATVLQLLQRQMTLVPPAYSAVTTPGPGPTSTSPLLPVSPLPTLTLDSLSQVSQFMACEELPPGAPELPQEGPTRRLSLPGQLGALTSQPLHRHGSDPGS

As for `Clc1cc2cnc(Nc3cnn(C4CC4)c3Cl)nc2cc1C1CCN(C2COC2)CC1`, the MRT in series [1] came out at 1.5 h. Moreover, the fIC50 in series [2] turned out to be 4.8 nM. The compound also showed a clearance in [3] of 19 mL/min/kg. Besides, the efflux ratio at 3 h, up to 1 µM worked out at 0.6 with mouse Bcrp and 0.5 with rat Mdr1a (P-gp) [4]. Also, the CL in [5] came to 1025 mL/min/kg. The pIC50 in series [6] was > 9.22; in series [8], 5.34. Also, the CLint scaled at 0.3 µM in [7] is 464 mL/min/kg; in series [9], 57 mL/min/kg. For the same compound, the Papp A→B at 3 h, up to 1 µM in the series with rat Mdr1a (P-gp) [10] was found to be 26 ×10⁻⁶ cm/s.
On to `Cc1c(Nc2ncc3cccc(C4CC4)c3n2)cnn1C1CCOCC1`, for which the MRT in series [1] was determined as 0.6 h. In addition, the fIC50 in series [2] was 31 nM. In [11], this compound had a logD of 2.7. Further, in series [3], the clearance worked out at 34 mL/min/kg. Besides, in the series on rat Mdr1a (P-gp) [4], the efflux ratio at 3 h, up to 1 µM was 0.65. The compound also yielded a CL in [5] of 1219 mL/min/kg. Moreover, the pIC50 in series [6] is 9.00. Besides, the CLint scaled at 0.3 µM in series [7] turned out to be 898 mL/min/kg; in series [9] it was 162 mL/min/kg. Besides, the Papp A→B at 3 h, up to 1 µM in the series on rat Mdr1a (P-gp) [10] worked out at 36 ×10⁻⁶ cm/s.
In the case of `FC(F)Cn1ncc(Nc2ncc3cc(Cl)c(C4CCN(C5COC5)CC4F)cc3n2)c1Cl` (stereo not given), in series [1], the MRT was determined as 1.8 h. The fIC50 in [2] turned out to be 7.4 nM. The compound also gave a clearance in series [3] of 18 mL/min/kg. Moreover, the efflux ratio at 3 h, up to 1 µM in the series on rat Mdr1a (P-gp) [4] was determined as 1. In addition, in [5], the CL stood at 755 mL/min/kg. Besides, the pIC50 in series [6] is > 9.22. Further, the values for the CLint scaled at 0.3 µM in series [7] and in [9] were 336 mL/min/kg and 212 mL/min/kg, respectively. Further, the Papp A→B at 3 h, up to 1 µM in the series on rat Mdr1a (P-gp) [10] came to 33 ×10⁻⁶ cm/s.
`CNc1nc(Nc2cn(C(C)(C)C#N)nc2C)ncc1C(F)(F)F` [DNL-201]: the Kp uu at 4 h, 2.5 µM in series [12] stood at 0.6. Also, the Kp uu at 2 h in series [13] stood at 0.46. Also, the efflux ratio at 3 h, up to 1 µM with human MDR1 (P-gp) was determined as 0.8.
Consider `Cc1c(Nc2ncc3ccc(C4(C#N)CC4)cc3n2)cnn1C1CCOCC1`, for which, in series [2], the fIC50 worked out at 19 nM. The efflux ratio at 3 h, up to 1 µM with rat Mdr1a (P-gp) [4] is 6.4. In series [6], the pIC50 is 9.15. Further, the Papp A→B at 3 h, up to 1 µM in the series on rat Mdr1a (P-gp) [10] was 34 ×10⁻⁶ cm/s.
`N#CC1(c2ccc3cnc(Nc4cnn(C5CCOCC5)c4Cl)nc3c2)CC12CC2` (stereo not given): in series [2], the fIC50 was found to be 1.7 nM. Moreover, the efflux ratio at 3 h, up to 1 µM with rat Mdr1a (P-gp) [4] turned out to be 0.9. In series [6], the pIC50 is > 10.10. The CLint scaled at 0.3 µM in [7] stood at 1960 mL/min/kg; in series [9] it was 405 mL/min/kg. Also, the apparent permeability from apical to basolateral (Papp A→B) at 3 h, up to 1 µM in the series with rat Mdr1a (P-gp) [10] amounted to 31 ×10⁻⁶ cm/s.
Turning to `CCNc1nc(Nc2cc(F)c(C(=O)N3CCOCC3)cc2OC)ncc1C(F)(F)F`, the Kp uu at 4 h, 2.5 µM in [12] is 0.5. Moreover, the Kp uu at 2 h in [13] is 0.6. Moreover, in the series with human MDR1 (P-gp), the efflux ratio at 3 h, up to 1 µM worked out at 0.9.
In the case of `Clc1cc2cnc(Nc3cnn(C4CC4)c3Cl)nc2cc1N1CCN(C2COC2)CC1`, the MRT in series [1] was 1.1 h. Further, the fIC50 in series [2] worked out at 71 nM. This compound yielded a clearance in series [3] of 42 mL/min/kg. For the same compound, the efflux ratio at 3 h, up to 1 µM with rat Mdr1a (P-gp) [4] amounted to 0.9. Also, in [5], the CL stood at 1800 mL/min/kg. Also, the results for the CLint scaled at 0.3 µM in series [7] and in [9] were 168 mL/min/kg and 63 mL/min/kg, respectively. Moreover, in [8], the pIC50 is 4.62. For the same compound, in the series on rat Mdr1a (P-gp) [10], the Papp A→B at 3 h, up to 1 µM amounted to 33 ×10⁻⁶ cm/s.
On to `Cc1c(Nc2ncc3ccc(-c4ccn[nH]4)cc3n2)cnn1C1CCOCC1`, for which, in series [2], the fIC50 worked out at 114 nM. Moreover, in series [6], the pIC50 is 8.77.
Turning to `FC1CN(C2CCOC2)CCC1c1cc2nc(Nc3cnn(C4CC4(F)F)c3Cl)ncc2cc1Cl` (stereo not given), in [1], the MRT worked out at 3.3 h. Moreover, the fIC50 in series [2] amounted to 2.5 nM. The compound also yielded a clearance in series [3] of 22 mL/min/kg. The same compound had a CL in [5] of 2494 mL/min/kg. Also, the pIC50 was > 9.22 in series [6] and 4.46 in series [8]. Also, the CLint scaled at 0.3 µM stood at 2640 mL/min/kg in [7] and 471 mL/min/kg in series [9].

The values above are taken from ChEMBL document CHEMBL5042510, “Structure-Guided Discovery of Aminoquinazolines as Brain-Penetrant and Selective LRRK2 Inhibitors” (J Med Chem, 2022).
